Patent US10272126B2, “Nanoparticle-stabilized microcapsules, dispersions comprising nanoparticle-stabilized microcapsules, and method for the treatment of bacterial biofilms” (The University of Massachusetts, priority 2015, dated 2019)

Tested on: NIH 3T3 fibroblast cells
Assay: Biofilm-3T3 fibroblast co-culture: mammalian cell viability (LDH cytotoxicity assay)
Format: cell-based
Description: Scatters and lines represent 3T3 fibroblast cell viability. Bars represent log10 of colony forming units in biofilms. The data are average of triplicates and the error bars indicate the standard deviations.
Biofilm infections within wounds interfere with the ability of the host to regenerate damaged tissue. See, e.g., Roy, S.; Elgharably, H.; Sinha, M.; Ganesh, K.; Chaney, S.; Mann, E.; Miller, C.; Khanna, S.; Bergdall, V. K.; Powell, H. M.; et al. Mixed-Species Biofilm Compromises Wound Healing by Disrupting Epidermal Barrier Function. J. Pathol. 2014, 233, 331-343. […] The co-cultures were treated with capsules for 3 hours, washed, and the viabilities of both fibroblasts and bacteria were measured. […]
Testing solutions at different concentrations were made by diluting capsules into DMEM prior to use. […] Co-cultures were then analyzed using a LDH cytotoxicity assay to determine mammalian cell viability according the manufacturer's instructions. See, e.g., Decker, T.; Lohmann-Matthes, M. L. A Quick and Simple Method for the Quantitation of Lactate Dehydrogenase Release in Measurements of Cellular Cytotoxicity and Tumor Necrosis Factor (TNF) Activity. […] The solutions containing dispersed bacteria were then plated onto agar plates and colony forming units were counted after incubation at 37° C. overnight.

Which “3T3 fibroblast cell viability in co-culture” value does the source give for peppermint oil here?
Its value is “toxic effects”.
